Measured values as given in patent publication US20050209220A1, “Treatment of peripheral neuropathy” (priority 2004, published 2005).
Where a name gives a salt, the structure may show the parent alone.

System: diabetic patient with neuropathy of the lower extremities
Experiment: Case reports: diabetic patients with neuropathy / pain of the lower extremities
Format: in vivo, human
Protocol: 2. A diabetic patient with severe pains in their legs reported that it was very difficult for them to sleep with the pain. At first, they were instructed to take the one-half the regimen described in Example 1, that is 10 mgs of desipramine and 1 mg of fluphenazine at bedtime. […] 3. A diabetic patient with neuropathy of the lower extremities was prescribed 10 mgs of desipramine alone orally every twelve hours. […] 4. A diabetic patient with severe pain in the lower legs and feet was instructed to take 1 mg of fluphenazine hydrochloride orally every twelve hours beginning at bedtime. […] 5. A diabetic patient with severe lower extremity neuropathy manifested as pain in the lower legs and feet was instructed to take 2 mgs of fluphenazine hydrochloride orally every twelve hours beginning at bedtime.

CNCCCN1c2ccccc2CCc2ccccc21 [desipramine]
patient-reported pain reduction (diabetic patient (Example 3), desipramine alone, 10 mgs orally every twelve hours (20 mgs/day)): lack of effectiveness in reducing pain | patient-reported pain reduction (diabetic patient (Example 3), desipramine alone, higher dosage of 40 mgs per day): lack of effectiveness in reducing pain

OCCN1CCN(CCCN2c3ccccc3Sc3ccc(C(F)(F)F)cc32)CC1 [fluphenazine hydrochloride]
patient-reported pain reduction (diabetic patient (Example 4), fluphenazine hydrochloride alone, 1 mg orally every twelve hours, after two weeks): somewhat of an improvement in pain reduction, but not complete elimination | patient-reported pain reduction (diabetic patient (Example 5), fluphenazine hydrochloride alone, 2 mgs orally every twelve hours, after two weeks): somewhat of an improvement in pain reduction, but not complete elimination | patient-reported pain reduction (diabetic patient (Example 5), fluphenazine hydrochloride alone, 4 mgs every twelve hours): substantial improvement in reducing the severity of pain
